The values that follow come from ChEMBL document CHEMBL3714762, “Agents and methods for treating ischemic and other diseases” (2012).

Data set [1] is described as follows: Antiproliferative activity against human WERI cells assessed as inhibition of cell proliferation by measuring normalized ratio of propidium iodide uptake at 5 uM by propidium iodide uptake based fluoroskan microplate reader analysis. The format is functional.
A short description of data set [2]: Antiproliferative activity against human WERI cells assessed as inhibition of cell proliferation by measuring normalized ratio of propidium iodide uptake at 10 uM by propidium iodide uptake based fluoroskan microplate reader analysis. It is filed as functional.
Data set [3] is described as follows: Antiproliferative activity against human WERI cells assessed as inhibition of cell proliferation at 10 uM by propidium iodide uptake based fluoroskan microplate reader analysis. The format is functional.
Data set [4] is described as follows: Antiproliferative activity against human WERI cells assessed as inhibition of cell proliferation at 5 uM by propidium iodide uptake based fluoroskan microplate reader analysis. It is filed as functional.
Data set [5] can be described thus: Selectivity index, ratio of antiproliferative activity against human WI38 cells to antiproliferative activity against human DMS53 cells. Details: species or system DMS-53.
Data set [6] is described as follows: Selectivity index, ratio of antiproliferative activity against human MCF10A cells to antiproliferative activity against mouse B16F10 cells. Details: species or system MCF-10A.
A short description of data set [7]: Selectivity index, ratio of antiproliferative activity against human MCF10A cells to antiproliferative activity against human DMS53 cells. The arrangement: species or system MCF-10A.
A further data set relates to HeLa. The data set is described as follows: Antiproliferative activity against human HeLa cells assessed as inhibition of cell proliferation at 10 uM incubated for 72 hrs by Cell-titer-Glo cell viability assay. It is filed as functional.
Data set [8] in a line: Antiproliferative activity against human WI38 cells assessed as inhibition of cell proliferation at 10 uM incubated for 72 hrs by Cell-titer-Glo cell viability assay. It is filed as cell-based, WI-38.
In the next data set the test system is Y79. The data set is described as follows: Antiproliferative activity against human Y79 cells assessed as inhibition of cell proliferation at 10 uM incubated for 72 hrs by Cell-titer-Glo cell viability assay. The note with it: Y79, 72 h. It is filed as functional.
The nature of data set [9]: Selectivity index, ratio of antiproliferative activity against mouse NIH/3T3 cells to antiproliferative activity against mouse B16F10 cells. The arrangement: species or system B16-F10.
Data set [10] is described as follows: Selectivity index, ratio of antiproliferative activity against human MCF10A cells to antiproliferative activity against human HeLa cells.
Data set [11] in a line: Selectivity index, ratio of antiproliferative activity against human MCF10A cells to antiproliferative activity against human Y79 cells. The arrangement: species or system MCF-10A.
Data set [12] in a line: Selectivity index, ratio of antiproliferative activity against human WI38 cells to antiproliferative activity against human HeLa cells.
Another data set relates to MCF7. The data set is described as follows: Antiproliferative activity against human MCF7 cells assessed as inhibition of cell proliferation at 10 uM incubated for 72 hrs by Cell-titer-Glo cell viability assay. Particulars: MCF7, 72 h. The format is functional.
Data set [13] is described as follows: Selectivity index, ratio of antiproliferative activity against mouse NIH/3T3 cells to antiproliferative activity against human DMS53 cells. The arrangement: species or system DMS-53.
The nature of data set [14]: Antiproliferative activity against human WERI cells assessed as inhibition of cell proliferation by propidium iodide uptake based fluoroskan microplate reader analysis. The format is functional.
Data set [15] in a line: Antiproliferative activity against human DMS53 cells assessed as inhibition of cell proliferation at 10 uM incubated for 72 hrs by Cell-titer-Glo cell viability assay. The note with it: DMS-53, 72 h. The format is functional.
A short description of data set [16]: Antiproliferative activity against mouse B16F10 cells assessed as inhibition of cell proliferation at 10 uM incubated for 72 hrs by Cell-titer-Glo cell viability assay. It is filed as functional. The note with it: B16-F10, 72 h.
Data set [17] is described as follows: Selectivity index, ratio of antiproliferative activity against mouse NIH/3T3 cells to antiproliferative activity against human MCF7 cells.
Data set [18] can be described thus: Selectivity index, ratio of antiproliferative activity against human WI38 cells to antiproliferative activity against human Y79 cells. The arrangement: species or system WI-38.
Data set [19] is described as follows: Selectivity index, ratio of antiproliferative activity against human WI38 cells to antiproliferative activity against mouse B16F10 cells. The arrangement: species or system B16-F10.
Data set [20] is described as follows: Antiproliferative activity against human MCF10A cells assessed as inhibition of cell proliferation at 10 uM incubated for 72 hrs by Cell-titer-Glo cell viability assay. It is filed as cell-based, MCF-10A.
A short description of data set [21]: Selectivity index, ratio of antiproliferative activity against human MCF10A cells to antiproliferative activity against human MCF7 cells. The arrangement: species or system MCF-10A.
Data set [22] can be described thus: Antiproliferative activity against mouse NIH/3T3 cells assessed as inhibition of cell proliferation at 10 uM incubated for 72 hrs by Cell-titer-Glo cell viability assay. The format is cell-based, NIH3T3.
Data set [23] is described as follows: Selectivity index, ratio of antiproliferative activity against human WI38 cells to antiproliferative activity against human MCF7 cells.
Data set [24] deals with Transient receptor potential cation channel subfamily M member 7 (Mus musculus, UniProt Q923J1). The data set is described as follows: Inhibition of N-terminal Flag-tagged mouse TRPM7 expressed in HEK293T cells assessed as reduction in whole cell currents by whole-cell patch clamp assay. The format is cell-based, HEK-293T. (The patch-clamp technique gives a direct electrical read-out from membranes.)

The nature of data set [25]: Selectivity index, ratio of antiproliferative activity against mouse NIH/3T3 cells to antiproliferative activity against human Y79 cells.
A short description of data set [26]: Selectivity index, ratio of antiproliferative activity against mouse NIH/3T3 cells to antiproliferative activity against human HeLa cells.
For data set [27], the system named is Rattus norvegicus. Kind of data set: Neuroprotection in Sprague-Dawley rat model of fluid percussion injury assessed as improvement in learning and memory tasks by measuring latency to reach platform dosed 1 hr after lateral fluid percussion injury by Morris water maze test. It is filed as functional, organism-based.
For data set [28], the species on record is Rattus norvegicus. The data set is described as follows: Neuroprotection in Sprague-Dawley rat model of fluid percussion injury assessed as distance traveled by rotarod performance test relative to untreated control. The format is functional, organism-based. (In general: The rotarod test checks motor coordination on a turning rod.)
A further data set deals with Cerebral cortex neuron. Kind of data set: Neuroprotection in CD1 mouse primary cortical neuron assessed as reduction in stretch injury-induced cell death at 2 to 10 uM dosed 1 hr after injury by propidium iodide straining based. It is filed as functional.
In data set [29] the test system is Rattus norvegicus. Kind of data set: Neuroprotection in Sprague-Dawley rat model of fluid percussion injury assessed as reduction in neuronal damage dosed 1 hr after injury by TTC staining based oscilloscopy. It is filed as functional, organism-based.
For data set [30], the species on record is Rattus norvegicus. The data set is described as follows: Neuroprotection in Sprague-Dawley rat model of fluid percussion injury assessed as activity parameters by rotarod performance test relative to untreated control. The format is functional, organism-based.
Data set [31] deals with Rattus norvegicus. The data set is described as follows: Neuroprotection in Sprague-Dawley rat model of fluid percussion injury assessed as reduction in neuronal brain damage dosed before injury at 2 to 10 uM by TTC staining based oscilloscopy. It is filed as functional, organism-based.
Data set [32] is filed under the species Rattus norvegicus. The data set is described as follows: Neuroprotection in Sprague-Dawley rat model of fluid percussion injury assessed as increase in balance by measuring mean latency measured on first day post injury by rotarod performance test relative to untreated control. It is filed as functional.

Calls of active or inactive are those of the source. No cut-off for these calls is given here. A value given as a limit tells only on which side of the number the result lay.

Sequence of Transient receptor potential cation channel subfamily M member 7 (Q923J1 whole entry): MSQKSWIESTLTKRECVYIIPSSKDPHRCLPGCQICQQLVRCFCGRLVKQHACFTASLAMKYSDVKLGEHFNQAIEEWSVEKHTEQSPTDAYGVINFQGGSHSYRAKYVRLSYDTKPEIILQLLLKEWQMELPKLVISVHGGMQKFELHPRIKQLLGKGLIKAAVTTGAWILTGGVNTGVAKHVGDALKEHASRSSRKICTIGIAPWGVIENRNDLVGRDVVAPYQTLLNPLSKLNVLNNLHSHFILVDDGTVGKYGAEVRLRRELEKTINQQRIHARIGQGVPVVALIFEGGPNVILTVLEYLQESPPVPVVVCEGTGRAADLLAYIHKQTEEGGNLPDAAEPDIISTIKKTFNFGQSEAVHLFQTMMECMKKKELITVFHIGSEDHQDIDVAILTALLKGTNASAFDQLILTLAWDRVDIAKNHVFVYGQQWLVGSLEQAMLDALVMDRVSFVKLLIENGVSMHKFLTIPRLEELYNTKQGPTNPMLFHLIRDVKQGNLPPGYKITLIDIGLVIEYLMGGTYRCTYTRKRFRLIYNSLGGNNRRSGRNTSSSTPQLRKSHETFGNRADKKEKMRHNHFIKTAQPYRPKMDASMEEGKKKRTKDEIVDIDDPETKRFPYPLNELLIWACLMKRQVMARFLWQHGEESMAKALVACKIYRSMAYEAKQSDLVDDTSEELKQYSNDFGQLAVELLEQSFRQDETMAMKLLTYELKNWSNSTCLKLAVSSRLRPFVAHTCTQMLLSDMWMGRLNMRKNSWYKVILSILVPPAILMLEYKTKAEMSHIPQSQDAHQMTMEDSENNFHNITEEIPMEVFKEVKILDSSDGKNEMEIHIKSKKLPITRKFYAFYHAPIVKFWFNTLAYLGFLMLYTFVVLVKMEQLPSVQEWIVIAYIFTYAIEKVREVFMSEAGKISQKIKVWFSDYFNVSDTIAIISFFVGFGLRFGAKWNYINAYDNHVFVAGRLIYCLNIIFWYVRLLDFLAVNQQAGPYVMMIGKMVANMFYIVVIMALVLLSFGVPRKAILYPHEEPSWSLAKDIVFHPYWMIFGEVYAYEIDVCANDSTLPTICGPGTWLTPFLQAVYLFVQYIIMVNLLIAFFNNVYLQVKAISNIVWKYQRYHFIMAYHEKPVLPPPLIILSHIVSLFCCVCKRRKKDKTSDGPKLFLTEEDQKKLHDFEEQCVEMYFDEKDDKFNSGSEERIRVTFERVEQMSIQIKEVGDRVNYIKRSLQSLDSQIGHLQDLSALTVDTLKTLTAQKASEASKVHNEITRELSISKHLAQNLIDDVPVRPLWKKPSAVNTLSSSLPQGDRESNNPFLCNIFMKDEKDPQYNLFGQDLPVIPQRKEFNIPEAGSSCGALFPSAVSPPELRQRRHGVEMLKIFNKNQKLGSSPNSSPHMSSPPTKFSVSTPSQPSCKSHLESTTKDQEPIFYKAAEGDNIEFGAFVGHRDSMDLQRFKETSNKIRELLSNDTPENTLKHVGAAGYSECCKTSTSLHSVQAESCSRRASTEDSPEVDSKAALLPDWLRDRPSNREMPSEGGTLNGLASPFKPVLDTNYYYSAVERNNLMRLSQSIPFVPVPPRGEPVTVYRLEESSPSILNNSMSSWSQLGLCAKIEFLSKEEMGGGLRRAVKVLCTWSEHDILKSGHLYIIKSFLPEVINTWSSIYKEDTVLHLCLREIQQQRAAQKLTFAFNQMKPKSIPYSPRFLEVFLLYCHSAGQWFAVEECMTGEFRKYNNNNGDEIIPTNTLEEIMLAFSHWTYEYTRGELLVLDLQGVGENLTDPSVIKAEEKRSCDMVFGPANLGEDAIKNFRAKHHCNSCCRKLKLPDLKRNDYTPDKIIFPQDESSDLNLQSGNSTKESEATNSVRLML

For the compound `Cc1ccc2c(c1)CCCN2C(=O)c1[nH]c2ccccc2c1Cl`, the Ratio in [1] was 0.77; in data set [2], 0.76. In data set [3], the inhibition (as a rule, the change of the read-out against control, counted positive when it falls) at 10 µM amounted to 33%. Moreover, the inhibition at 5 µM in data set [4] was found to be 9%.
Turning to `COc1ccc2c(c1)CCN=C2c1sc2ccccc2c1Cl`, the “Selectivity Index” value in data set [5], in data set [6], in data set [7], in data set [9], in [10] and in data set [11] was 20 each time. Besides, the “Selectivity Index” value in data set [12], in [13], in data set [17], in data set [18], in [19] and in data set [21] was 20 throughout. Besides, the “Selectivity Index” value in [23], in data set [25] and in [26] was 20 throughout. The Ratio stood at 0.06 in data set [1] and 0.035 in data set [2]. Further, the inhibition at 10 µM in the data set with HeLa is greater than 40%; in the data set on Y79, greater than 40%; in the data set with MCF7, greater than 40%; in [3] it was 42%; in data set [15], greater than 40%; in data set [16], greater than 40%. Further, the inhibition at 72 h, 10 µM in [8], in [20] and in [22] was greater than 40% each time. Further, the figures for the IC50 in data set [14] and in data set [24] were 1.19 µM and 5 µM, respectively. Moreover, the inhibition at 5 µM in [4] stood at 18%.
As to `COc1ccc(C(=O)c2sc3ccccc3c2Cl)cc1`, the “Selectivity Index” value in data set [5], in [6], in [7], in data set [9], in data set [10] and in [11] was 20 in each case. The “Selectivity Index” value in data set [12], in data set [13], in [17], in data set [18], in data set [19] and in [21] was 20 each time. For the same compound, the “Selectivity Index” value in [23], in data set [25] and in data set [26] was 20 in each case. Further, the Ratio in data set [1] was 0.305; in data set [2], 0.063. The inhibition at 10 µM (in the data set with HeLa; in the data set on Y79; with MCF7; in data set [15]; in [16]) was greater than 40% throughout. Moreover, the inhibition at 72 h, 10 µM in data set [8], in [20] and in [22] was greater than 40% throughout. Further, the IC50 (commonly the concentration that gives 50% inhibition) in data set [14] came out at 4 µM.
Turning to `Cc1c(Cc2ccc(Cl)c(Cl)c2)c(=O)oc2cc(O)ccc12`, the result with Rattus norvegicus [27], in the data set filed under Rattus norvegicus [28], in the data set with Cerebral cortex neuron, in the data set on Rattus norvegicus [29], in the data set listed under Rattus norvegicus [30] and with Rattus norvegicus [31] was Active. Also, the “fold change (FC)” value in the data set filed under Rattus norvegicus [32] was found to be 2.
